For 29 compounds, EC50 and Ki results are on record in patent US10472347B2, “Aminopyrazine compounds with A2A antagonist properties” (Merck Sharp & Dohme Corp., priority 2014, dated 2019).

Each structure is given as a SMILES string.

T1 sequence (P29274 whole entry): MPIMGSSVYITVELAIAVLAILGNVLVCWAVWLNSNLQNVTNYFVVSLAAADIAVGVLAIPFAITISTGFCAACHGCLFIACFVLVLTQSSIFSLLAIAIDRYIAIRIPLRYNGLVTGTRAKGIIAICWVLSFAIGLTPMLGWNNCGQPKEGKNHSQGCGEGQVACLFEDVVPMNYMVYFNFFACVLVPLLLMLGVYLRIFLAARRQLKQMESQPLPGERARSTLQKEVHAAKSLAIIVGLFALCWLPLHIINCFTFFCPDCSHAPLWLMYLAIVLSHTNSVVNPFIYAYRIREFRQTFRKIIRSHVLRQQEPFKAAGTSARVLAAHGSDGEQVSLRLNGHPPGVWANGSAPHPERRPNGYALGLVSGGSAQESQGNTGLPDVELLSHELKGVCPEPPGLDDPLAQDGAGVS

The first experiment concerns the target T1, human A2a receptor (Homo sapiens, UniProt P29274).
T1 construct: purchased Perkin-Elmer RBHA2AM400UA; host or cells: HEK293 cells (membranes)
In words: A2a competition binding assay, Scintillation Proximity technology. The settings on record: membranes from HEK293 cells expressing human A2a receptor; 0.5 nM tritiated ligand. Here is the method:
Binding affinities of compounds of the invention for the human A2a receptor were determined in a competition binding assay using Scintillation Proximity technology. Thus, […] from HEK293 cells expressing the human A2a receptor were incubated with a compound of the invention at concentrations ranging from 3000 nM to 0.15 nM in a reaction mixture containing also 0.5 nM of a tritiated form of 5-amino-7-[2-phenethyl]-2-(furan-2-yl)-7H-pyrazolo[4,3-e][1,2,4]triazolo[1,5-c]pyrimidine (the tritiated compound) and 100 μg of wheat germ agglutin-coated yttrium silicate SPA beads for one hour at room temperature with agitation. The beads were then allowed to settle to the bottom of the wells for 1 hr, after which the membrane-associated radioactivity was determined by scintillation counting in a TopCount microplate reader. Ki values were determined using the Cheng-Prusoff equation.
HEK293 cells expressing the human, rat, dog or monkey adenosine 2a receptor (Purchased from Perkin-Elmer # RBHA2AM400UA).
The Tritiated compound was prepared in-house by MRL Radiochemistry according to published methods.
Wheat germ agglutinin-coated yttrium silicate SPA beads (GE Healthcare #RPNQ0023). Dilute to 25 mg/ml in assay buffer.
Assay Buffer was prepared in house: Dulbecco's calcium and magnesium free phosphate buffered saline+10 mM MgCl2
Adenosine deaminase from calf intestine, 10 mg/2 ml (Roche #10 102 105 001).
A2a antagonist standard (9-chloro-1-(2-furanyl)-[1,2,4]triazolo1,5-c]quinazolin-5-amine from Tocris Bioscience)
Make eight 1:3 serial dilutions in 100% DMSO from a 3 mM compound stock
Transfer 50 nl of compound into a 384-well OptiPlate (Perkin Elmer).
Typically, final concentrations of compound used in the assay ranged from 3000 nM to 0.152 nM.
Dilute a solution of the Tritiated compound to 1.25 nM in assay buffer. This is a 2.5× solution. The final concentration in the assay is 0.5 nM. Calculate the concentration by counting two 5 μl aliquots.
Use 0.25 ug of membrane/well. Dilute membranes to 9.7 μg/ml in assay buffer. Treat with 20 ug/ml adenosine deaminase (ADA) for 15 minutes at room temperature to degrade endogenous adenosine.
Use 100 μg/well wheat germ agglutinin-coated yttrium silicate SPA beads.
Mix ADA-treated membranes and SPA beads together for 30 min prior to assay.
To the Perkin-Elmer Optiplate-384 containing the compound titration add 20 μl of 2.5× solution of the Tritiated compound and 30 μl of the membrane-bead mixture. Incubate for one hour at room temperature with agitation.
Include total binding (assay buffer+1% DMSO) and non-specific binding (CGS15943, 1 μM) wells.
Allow the beads to settle for one hour.
A curve fitting program (i.e., Prism, Activity Base, Chemcart) is used to determine the EC50. The Ki value is calculated using the Cheng-Prusoff equation. Ki=EC50/(1+(radioligand concentration/Kd))
Consider `Cc1cccnc1CNC(=O)c1nc(C)c(-c2ncco2)nc1N` [Ex-3, 3-amino-6-methyl-N-((3-methylpyridin-2-yl)methyl)-5-(oxazol-2-yl)pyrazine-2-carboxamide], for which the EC50 amounted to 3.4 nM.

Regarding `Cc1nc(C(=O)NCc2ncccc2C2CC2)c(N)nc1-c1ncco1` [Ex-4, 3-amino-N-((3-cyclopropylpyridin-2-yl)methyl)-6-methyl-5-(oxazol-2-yl)pyrazine-2-carboxamide], the midpoint of the response, the EC50, lay at 4.6 nM.

Compound `Cc1cccnc1CNC(=O)c1nc(C)c(-c2ncco2)nc1N` [Ex-5, 3-amino-6-methyl-N-[(3-methylpyridin-2-yl)methyl]-5-(1,3-oxazol-2-yl)pyrazine-2-carboxamide] displayed a 50% effective concentration (EC50) of 4.7 nM.

Take `Cc1nc(C(=O)NCc2ncccc2C2CC2)c(N)nc1-c1ncco1` [Ex-6, 3-amino-N-[(3-cyclopropylpyridin-2-yl)methyl]-6-methyl-5-(1,3-oxazol-2-yl)pyrazine-2-carboxamide]: the midpoint of the response, the EC50, lay at 5.9 nM. The EC50 values of the last two compounds are within 1.5-fold of each other.

With `Cc1nc(C(=O)NCc2cccc3cccnc23)c(N)nc1-c1ncco1` [Ex-9, 3-amino-6-methyl-5-(1,3-oxazol-2-yl)-N-(quinolin-8-ylmethyl)pyrazine-2-carboxamide], the midpoint of the response, the EC50, lay at 2.1 nM.

Take `Cc1cccc(CNC(=O)c2nc(C)c(-c3ncco3)nc2N)n1` [Ex-10, 3-amino-6-methyl-N-[(6-methylpyridin-2-yl)methyl]-5-(1,3-oxazol-2-yl)pyrazine-2-carboxamide]: the 50% effective concentration (EC50) stood at 1.2 nM.

The experiment is the same for the next values; noted with them: membranes from HEK293 cells expressing human A2a receptor; Ki by Cheng-Prusoff equation.
`COC[C@H]1CCC[C@H]1NC(=O)c1nc(C)c(-c2ncco2)nc1N` (stereo in doubt) [Ex-171, 3-amino-N-[(1R,2S)-2-(methoxymethyl)cyclopentyl]-6-methyl-5-(1,3-oxazol-2-yl)pyrazine-2-carboxamide] had a Ki of 1.03 nM.

`Cc1cccnc1CNC(=O)c1nc(C)c(-c2ncco2)nc1N` [Ex-5, 3-amino-6-methyl-N-[(3-methylpyridin-2-yl)methyl]-5-(1,3-oxazol-2-yl)pyrazine-2-carboxamide] had a Ki of 0.199 nM.

In the case of `Cc1nc(C(=O)NCc2ncccc2C2CC2)c(N)nc1-c1ncco1` [Ex-6, 3-amino-N-[(3-cyclopropylpyridin-2-yl)methyl]-6-methyl-5-(1,3-oxazol-2-yl)pyrazine-2-carboxamide], the Ki was 0.224 nM.

The compound `Cc1nc(C(=O)N[C@@H]2CCc3cccnc32)c(N)nc1-c1ncco1` [Ex-7A, (R)-3-amino-N-(6,7-dihydro-5H-cyclopenta[b]pyridin-7-yl)-6-methyl-5-(1,3-oxazol-2-yl)pyrazine-2-carboxamide] displayed a Ki of 5.18 nM.

In turn, `Cc1nc(C(=O)N[C@H]2CCc3cccnc32)c(N)nc1-c1ncco1` [Ex-7B, (S)-3-amino-N-(6,7-dihydro-5H-cyclopenta[b]pyridin-7-yl)-6-methyl-5-(1,3-oxazol-2-yl)pyrazine-2-carboxamide] gave an inhibition constant (Ki) of 0.387 nM. Compared with the last compound, the Ki is about 13-fold lower.

As for `Cc1nc(C(=O)NCc2cccc3cccnc23)c(N)nc1-c1ncco1` [Ex-9, 3-amino-6-methyl-5-(1,3-oxazol-2-yl)-N-(quinolin-8-ylmethyl)pyrazine-2-carboxamide], the affinity corresponds to a Ki of 0.64 nM. Compared with the last compound, the Ki is about 1.7-fold higher.

For the compound `Cc1cccc(CNC(=O)c2nc(C)c(-c3ncco3)nc2N)n1` [Ex-10, 3-amino-6-methyl-N-[(6-methylpyridin-2-yl)methyl]-5-(1,3-oxazol-2-yl)pyrazine-2-carboxamide], the affinity, expressed as Ki, was 0.573 nM. The Ki values of the last two compounds are within 1.5-fold of each other.

Compound `Cc1nc(C(=O)NCc2c(F)cccc2F)c(N)nc1-c1ncco1` [Ex-11, 3-amino-N-(2,6-difluorobenzyl)-6-methyl-5-(1,3-oxazol-2-yl)pyrazine-2-carboxamide] yielded an inhibitory constant (Ki) of 0.125 nM.

Regarding `Cc1nc(C(=O)NCc2ccno2)c(N)nc1-c1ncco1` [Ex-12, 3-amino-N-(isoxazol-5-ylmethyl)-6-methyl-5-(1,3-oxazol-2-yl)pyrazine-2-carboxamide], the affinity corresponds to a Ki of 9.82 nM.

On to `Cc1nc(C(=O)NCc2ncco2)c(N)nc1-c1ncco1` [Ex-13, 3-amino-6-methyl-5-(1,3-oxazol-2-yl)-N-(1,3-oxazol-2-ylmethyl)pyrazine-2-carboxamide], for which the Ki is 6.06 nM.

Turning to `Cc1c[nH]c(CNC(=O)c2nc(C)c(-c3ncco3)nc2N)n1` [Ex-14, 3-amino-6-methyl-N-[(4-methyl-1H-imidazol-2-yl)methyl]-5-(1,3-oxazol-2-yl)pyrazine-2-carboxamide], the Ki came to 2.12 nM.

In the case of `Cc1nc(C(=O)NCc2nccn2C)c(N)nc1-c1ncco1` [Ex-15, 3-amino-6-methyl-N-[(1-methyl-1H-imidazol-2-yl)methyl]-5-(1,3-oxazol-2-yl)pyrazine-2-carboxamide], the affinity, expressed as Ki, was 1.25 nM.

With `Cc1nc(C(=O)NCc2ncc[nH]2)c(N)nc1-c1ncco1` [Ex-16, 3-amino-N-(1H-imidazol-2-ylmethyl)-6-methyl-5-(1,3-oxazol-2-yl)pyrazine-2-carboxamide], the Ki stood at 5.14 nM.

In turn, `Cc1nc(C(=O)NCc2cncs2)c(N)nc1-c1ncco1` [Ex-17, 3-amino-6-methyl-5-(1,3-oxazol-2-yl)-N-(1,3-thiazol-5-ylmethyl)pyrazine-2-carboxamide] returned an inhibition constant Ki of 17.3 nM.

Compound `Cc1nc(C(=O)NCc2ncccc2C(F)(F)F)c(N)nc1-c1ncco1` [Ex-18, 3-amino-6-methyl-5-(1,3-oxazol-2-yl)-N-{[3-(trifluoromethyl)pyridin-2-yl]methyl}pyrazin-2-carboxamide] came in with a Ki of 0.151 nM.

As to `Cc1nc(C(=O)NCc2ncccn2)c(N)nc1-c1ncco1` [Ex-19, 3-amino-6-methyl-5-(1,3-oxazol-2-yl)-N-(pyrimidin-2-ylmethyl)pyrazine-2-carboxamide], the inhibition constant (Ki) came out at 2.76 nM.

As for `Cc1nc(C(=O)NCc2ncccc2F)c(N)nc1-c1ncco1` [Ex-20, 3-amino-N-[(3-fluoropyridin-2-yl)methyl]-6-methyl-5-(1,3-oxazol-2-yl)pyrazine-2-carboxamide], the Ki turned out to be 0.365 nM.

`Cc1nc(C(=O)NCc2cccc(N(C)C)n2)c(N)nc1-c1ncco1` [Ex-21, 3-amino-N-{[6-(dimethylamino)pyridin-2-yl]methyl}-6-methyl-5-(1,3-oxazol-2-yl)pyrazine-2-carboxamide]: the affinity corresponds to a Ki of 0.934 nM.

Consider `COc1cccc(CNC(=O)c2nc(C)c(-c3ncco3)nc2N)n1` [Ex-22, 3-amino-N-[(6-methoxypyridin-2-yl)methyl]-6-methyl-5-(1,3-oxazol-2-yl)pyrazine-2-carboxamide], for which the affinity corresponds to a Ki of 0.919 nM.

Take `Cc1nc(C(=O)NCc2cccc3ccncc23)c(N)nc1-c1ncco1` [Ex-23, 3-amino-N-(isoquinolin-8-ylmethyl)-6-methyl-5-(1,3-oxazol-2-yl)pyrazine-2-carboxamide]: the Ki came out at 0.293 nM.

The compound `Cc1nc(C(=O)N2CCCc3ccccc32)c(N)nc1-c1ncco1` [Ex-24] yielded an inhibitory constant (Ki) of 78.5 nM.

For the compound `Cc1nc(C(=O)NCCc2ccccn2)c(N)nc1-c1ncco1` [Ex-25, 3-amino-6-methyl-5-(1,3-oxazol-2-yl)-N-(2-pyridin-2-ylethyl)pyrazine-2-carboxamide], the Ki came to 16.2 nM.

The compound `Cc1nc(C(=O)NCc2ccn(C)n2)c(N)nc1-c1ncco1` [Ex-26, 3-amino-6-methyl-N-[(1-methyl-1H-pyrazol-3-yl)methyl]-5-(1,3-oxazol-2-yl)pyrazine-2-carboxamide] had a Ki of 1.71 nM. This Ki is about 9.5-fold lower than that of the compound before.

As to `Cc1nc(C(=O)NCc2ccncc2)c(N)nc1-c1ncco1` [Ex-27, 3-amino-6-methyl-5-(1,3-oxazol-2-yl)-N-(pyridin-4-ylmethyl)pyrazine-2-carboxamide], the affinity, expressed as Ki, was 120 nM. This Ki lies about 70-fold higher than the previous one.

Consider `Cc1nc(C(=O)NCc2cccnc2)c(N)nc1-c1ncco1` [Ex-28, 3-amino-6-methyl-5-(1,3-oxazol-2-yl)-N-(pyridin-3-ylmethyl)pyrazine-2-carboxamide], for which the Ki was found to be 14.5 nM.

On to `Cc1nc(C(=O)NCc2cc3ccccc3cn2)c(N)nc1-c1ncco1` [Ex-29, 3-amino-N-(isoquinolin-3-ylmethyl)-6-methyl-5-(1,3-oxazol-2-yl)pyrazine-2-carboxamide], for which the affinity, expressed as Ki, was 0.336 nM.

`Cc1nc(C(=O)NCc2ccccc2F)c(N)nc1-c1ncco1` [Ex-30, 3-amino-N-(2-fluorobenzyl)-6-methyl-5-(1,3-oxazol-2-yl)pyrazine-2-carboxamide] came in with a Ki of 0.314 nM.
